Earlier results on two compounds are cited in patent US6365131B1, “Pharmaceutical dental formulation for topical application of metronidazole benzoate, chlorhexidine gluconate and local anesthetic” (priority 1997, dated 2002).

`CCOC(=O)c1ccc(N)cc1` [Benzocaine, ethyl ester of p-Aminobenzoic acid]: the “Time to peak effect” value (after the application to skin or mucosal surface) was not above 1 min.
Consider `CCN(CC)CC(=O)Nc1c(C)cccc1C` [Lidocaine], for which, where the note is “depending on the site of administration”, the Onset of anesthesia result is recorded as “within a few minutes”. Also, the Duration of action entry (in words) is given as “intermediate duration of action”.
